Experimental data published in ChEMBL document CHEMBL3576842, “Selenium-containing chrysin and quercetin derivatives: attractive scaffolds for cancer therapy” (J Med Chem, 2015).
Activity calls are given as the source filed them. No cut-off for these calls is given here.

How the values were obtained:
C13 [1] = experiment: Selectivity index, ratio of IC50 for HEK293 cells to IC50 for human C13 cells; format: functional
A-431 [2] = experiment: Cytotoxicity against human A431 cells assessed as cell growth inhibition after 72 hrs by MTT assay; format: functional, cell-based; conditions: A-431, 72 h
[3] = Cytotoxicity against human BxPC3 cells assessed as cell growth inhibition after 72 hrs by MTT assay; format: functional, cell-based; conditions: BXPC-3, 72 h
HEK293 [4] = experiment: Selectivity index, ratio of IC50 for HEK293 cells to IC50 for human 2008 cells; format: functional
MCF7 [5] = experiment: Cytotoxicity against human MCF7 cells assessed as cell growth inhibition after 72 hrs by MTT assay; format: functional, cell-based; conditions: MCF7, 72 h
A-431 [6] = experiment: Cytotoxicity against cisplatin-resistant human A431 cells assessed as cell growth inhibition after 72 hrs by MTT assay; format: functional, cell-based; conditions: A-431, 72 h
HCT-15 = experiment: Cytotoxicity against human HCT15 cells assessed as cell growth inhibition after 72 hrs by MTT assay; format: functional, cell-based; conditions: HCT-15, 72 h
NCI/ADR-RES [7] = experiment: Selectivity index, ratio of IC50 for HEK293 cells to IC50 for human MCF7/ADR cells; format: functional
HEK293 [8] = experiment: Cytotoxicity against HEK293 cells assessed as cell growth inhibition after 72 hrs by MTT assay; format: cell-based; conditions: Homo sapiens, HEK293, 72 h
[9] = Antioxidant activity assessed as DPPH radical scavenging activity at 1 mM after 1 hr; format: physicochemical; conditions: 1000 µM
[10] = Cytotoxicity against human C13 cells assessed as cell growth inhibition after 72 hrs by MTT assay; format: functional, cell-based; conditions: C13, 72 h
A-375 = experiment: Cytotoxicity against human A375 cells assessed as cell growth inhibition after 72 hrs by MTT assay; format: functional, cell-based; conditions: A-375, 72 h
HEK293 [11] = experiment: Selectivity index, ratio of IC50 for HEK293 cells to IC50 for human HCT15 cells; format: functional
HEK293 [12] = experiment: Selectivity index, ratio of IC50 for HEK293 cells to IC50 for human MCF7 cells; format: functional
[13] = Cytotoxicity against human MCF7/ADR cells assessed as cell growth inhibition after 72 hrs by MTT assay; format: functional, cell-based; conditions: NCI/ADR-RES
HEK293 [14] = experiment: Selectivity index, ratio of IC50 for HEK293 cells to IC50 for human A375 cells; format: functional
2008 = experiment: Cytotoxicity against human 2008 cells assessed as cell growth inhibition after 72 hrs by MTT assay; format: functional, cell-based; conditions: Homo sapiens, 2008, 72 h
HEK293 [15] = experiment: Selectivity index, ratio of IC50 for HEK293 cells to IC50 for human A431 cells; format: functional
HEK293 [16] = experiment: Selectivity index, ratio of IC50 for HEK293 cells to IC50 for human BxPC3 cells; format: functional
HEK293 [17] = experiment: Selectivity index, ratio of IC50 for HEK293 cells to IC50 for cisplatin-resistant human A431 cells; format: functional
A-431 [18] = experiment: Resistance factor, ratio of IC50 for cisplatin-resistant human A431 cells to IC50 for human A431 cells; format: functional
MCF7 [19] = experiment: Induction of apoptosis in human MCF7 cells assessed as caspase-3 activation using DEVD-AFC as substrate at IC50 after 48 hrs by spectrofluorimeter analysis; format: functional
[20] = target: T1, Glutathione reductase, mitochondrial (Homo sapiens) (UniProt P00390); experiment: Effect on glutathione reductase activity in human MCF7 cells using GSSG as substrate at 1.25 to 20 uM after 24 hrs by spectrophotometric analysis; format: cell-based
T1 sequence (whole entry): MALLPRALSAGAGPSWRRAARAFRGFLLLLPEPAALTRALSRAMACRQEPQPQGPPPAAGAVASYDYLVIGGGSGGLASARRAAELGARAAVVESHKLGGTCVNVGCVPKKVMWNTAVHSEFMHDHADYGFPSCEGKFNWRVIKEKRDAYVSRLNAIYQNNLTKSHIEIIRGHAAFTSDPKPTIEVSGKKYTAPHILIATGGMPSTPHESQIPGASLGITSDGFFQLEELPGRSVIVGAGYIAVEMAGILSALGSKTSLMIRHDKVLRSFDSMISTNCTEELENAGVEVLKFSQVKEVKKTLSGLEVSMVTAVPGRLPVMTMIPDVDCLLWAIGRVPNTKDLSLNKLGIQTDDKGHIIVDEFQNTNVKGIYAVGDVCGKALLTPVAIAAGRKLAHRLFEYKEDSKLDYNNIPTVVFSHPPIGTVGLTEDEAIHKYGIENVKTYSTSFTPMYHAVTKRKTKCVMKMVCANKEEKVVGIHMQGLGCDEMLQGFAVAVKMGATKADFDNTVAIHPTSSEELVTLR

MCF7 [21] = experiment: Anticlonogenic activity against human MCF7 cells assessed as inhibition of clonogenic expansion after 6 hrs; format: functional, cell-based
MCF7 [22] = experiment: Drug uptake in human MCF7 cells assessed as intracellular Se accumulation at 12.5 to 25 uM after 12 to 24 hrs by GF-AAS analysis; format: ADME, cell-based; conditions: mcf7, 25 µM
MCF7 [23] = experiment: Induction of apoptosis in human MCF7 cells assessed as brightly stained nuclei, chromatin condensation and fragmentation at IC50 after 48 hrs by Hoechst 33258/PI fluorescent staining analysis; format: functional, cell-based
MCF7 [24] = experiment: Induction of apoptosis in human MCF7 cells assessed as decrease in mitochondrial membrane potential at IC50 after 48 hrs by flow cytometry; format: functional
NCI/ADR-RES [25] = experiment: Resistance factor, ratio of IC50 for human MCF7/ADR cells to IC50 for human MCF7 cells; format: functional
[26] = Antioxidant activity assessed as DPPH radical scavenging activity after 1 hr; format: physicochemical
[27] = Antioxidant activity assessed as glutathione peroxidase-like activity measured as time required to oxidize dithiothretol by 50% after addition of H2O2 at 3.24 umol; format: physicochemical
[28] = target: T2, Thioredoxin reductase (Homo sapiens) (UniProt Q16881+Q9NNW7+Q86VQ6); experiment: Inhibition of thioredoxin reductase activity in human MCF7 cells after 24 hrs by DTNB reduction assay; format: cell-based
[29] = target: T2, Thioredoxin reductase (Homo sapiens); experiment: Increase in thioredoxin reductase activity in HEK293 cells at 0.0625 to 0.625 uM after 24 hrs by DTNB reduction assay; format: cell-based; design: scale not given: the % may be the effect or the level left
MCF7 [30] = experiment: Decrease in total sulfhydryl gropus in human MCF7 cells at IC50 after 24 hrs by DTNB reduction assay; format: functional
MCF7 [31] = experiment: Effect on glutathione peroxidase activity in human MCF7 cells using tert-butyl hydroperoxide and GSH as substrate at 1.25 to 20 uM after 24 hrs by spectrophotometric analysis; format: cell-based
MCF7 [32] = experiment: Decrease in total glutathione level in human MCF7 cells at IC50 after 48 hrs by spectrophotometric analysis; format: functional
C13 [33] = experiment: Resistance factor, ratio of IC50 for cisplatin-resistant human C13 cells to IC50 for human 2008 cells; format: functional
MCF7 [34] = experiment: Increase in oxidized glutathione level in human MCF7 cells at IC50 after 48 hrs by spectrophotometric analysis; format: functional
MCF7 [35] = experiment: Increase in oxidant species production in human MCF7 cells at 25 uM by CM-DCFDA based fluorescence plate reader analysis; format: functional, cell-based
[36] = target: T2, Thioredoxin reductase (Homo sapiens); experiment: Inhibition of thioredoxin reductase activity in human MCF7 cells at 20 uM after 24 hrs by DTNB reduction assay; format: cell-based

Row | Structure (SMILES) | Ratio IC50 (C13 [1]) | IC50 (A-431 [2]) | IC50 [3] | Ratio IC50 (HEK293 [4]) | IC50 (MCF7 [5]) | IC50 (A-431 [6]) | IC50 (HCT-15) | Ratio IC50 (NCI/ADR-RES [7]) | IC50 (HEK293 [8]) | IC50 [10] | IC50 (A-375) | Ratio IC50 (HEK293 [11]) | Ratio IC50 (HEK293 [12]) | IC50 [13] | Ratio IC50 (HEK293 [14]) | IC50 2008 | Ratio IC50 (HEK293 [15]) | Ratio IC50 (HEK293 [16]) | Ratio IC50 (HEK293 [17]) | Ratio IC50 (A-431 [18]) | also measured
1 | COc1cc(O)c2c(=O)c(OC)c(-c3ccc(OC)c(OC)c3)oc2c1 [RETUSIN] | 1.6 | 57.5 µM | > 100 µM | 1.6 | > 100 µM | 82.2 µM | 68.1 µM | 1.6 | 142 µM | > 100 µM | 69.7 µM | 1.6 | 1.6 | > 100 µM | 1.6 | > 100 µM | 1.6 | 1.6 | 1.6 | 1.4 | Activity [9]: 2.5%
2 | COc1cc(O)c2c(=[Se])c(OC)c(-c3ccc(OC)c(OC)c3)oc2c1 | 5.1 | 3.11 µM | 2.42 µM | 5.1 | 3.08 µM | 3.78 µM | 2.23 µM | 5.1 | 17.3 µM | 2.29 µM | 2.21 µM | 5.1 | 5.1 | 3.35 µM | 5.1 | 2.09 µM | 5.1 | 5.1 | 5.1 | 1.2 | fold change (FC) (MCF7 [19]): 4; Activity [20]: inactive; inhibition (MCF7 [21]): Active; Drug uptake (MCF7 [22]): Active; Activity (MCF7 [23]): Active; fold change (FC) (MCF7 [24]): 4; Ratio IC50 (NCI/ADR-RES [25]): 1.1; Activity [9]: 90.4%; IC50 [26]: 74 µM; Time [27]: 4.34 min; inhibition [28]: Active; Activity [29]: 35%; inhibition (INH) (MCF7 [30]): 60%; Activity (MCF7 [31]): inactive; inhibition (MCF7 [32]): Active
3 | COc1cc(O)c2c(=S)c(OC)c(-c3ccc(OC)c(OC)c3)oc2c1 |  |  |  |  |  |  |  |  |  |  |  |  |  |  |  |  |  |  |  |  | Activity [9]: 18.3%
4 | Oc1cc(O)c2c(=S)cc(-c3ccccc3)oc2c1 | 1.2 | 66.3 µM | 64.4 µM | 1.2 | 70.4 µM | 98.4 µM | 56.6 µM | 1.2 | 68.3 µM | 58.5 µM | 36.5 µM | 1.2 | 1.2 | 72.3 µM | 1.2 | 41.1 µM | 1.2 | 1.2 | 1.2 | 1.6 | Ratio IC50 (NCI/ADR-RES [25]): 1; IC50 [26]: 4600 µM; Ratio IC50 (C13 [33]): 1.4
5 | O=c1c(O)c(-c2ccc(O)c(O)c2)oc2cc(O)cc(O)c12 [QUERCETIN] | 2.5 | 23 µM | 24.1 µM | 2.5 | 20.9 µM | 34.4 µM | 16.4 µM | 2.5 | 54.6 µM | 37.6 µM | 25.1 µM | 2.5 | 2.5 | 22.2 µM | 2.5 | 21.2 µM | 2.5 | 2.5 | 2.5 | 1.5 | Ratio IC50 (NCI/ADR-RES [25]): 1.1; Activity [9]: 95.6%; IC50 [26]: 28 µM; Ratio IC50 (C13 [33]): 1.8
6 | Oc1cc(O)c2c(=[Se])cc(-c3ccccc3)oc2c1 | 3.7 | 1.61 µM | 2.31 µM | 3.7 | 2.25 µM | 3.18 µM | 3.17 µM | 3.7 | 8.13 µM | 4.04 µM | 1.09 µM | 3.7 | 3.7 | 1.96 µM | 3.7 | 2.87 µM | 3.7 | 3.7 | 3.7 | 2 | fold change (FC) (MCF7 [19]): 4; Activity [20]: inactive; inhibition (MCF7 [21]): Active; Drug uptake (MCF7 [22]): Active; Activity (MCF7 [23]): Active; fold change (FC) (MCF7 [24]): 4; fold change (FC) (MCF7 [34]): 4; Activity (MCF7 [35]): Active; Ratio IC50 (NCI/ADR-RES [25]): 0.9; IC50 [26]: 659 µM; Time [27]: 3.62 min; inhibition [36]: 75%; Activity [29]: 35%; Ratio IC50 (C13 [33]): 1.4; inhibition (INH) (MCF7 [30]): 60%; Activity (MCF7 [31]): inactive; inhibition (INH) (MCF7 [32]): 60%
7 | O=c1cc(-c2ccccc2)oc2cc(O)cc(O)c12 [CHRYSIN] | 1.9 | 29.4 µM | 54.3 µM | 1.9 | 50.3 µM | 60.1 µM | 54.4 µM | 1.9 | 77.5 µM | 49.7 µM | 33.2 µM | 1.9 | 1.9 | 51 µM | 1.9 | 28.6 µM | 1.9 | 1.9 | 1.9 | 2 | Ratio IC50 (NCI/ADR-RES [25]): 1; Ratio IC50 (C13 [33]): 1.7
8 | O=C1O[C@H]([C@@H](O)CO)C(O)=C1O [ASCORBIC ACID] |  |  |  |  |  |  |  |  |  |  |  |  |  |  |  |  |  |  |  |  | IC50 [26]: 6 µM
